Active and inactive are the calls of the source. The rule behind the calls is not given here.
Experiments:
[1] = system: MDA-MB-468; assay: Cytotoxicity against human MDA-MB-468 cells harboring constitutively harboring activated STAT3 assessed as inhibition of cell viability at 10 uM after 72 hrs by MTT assay; type: functional; conditions: MDA-MB-468, 72 h
[2] = target: T1, Signal transducer and activator of transcription 3 (Homo sapiens, UniProt P40763); assay: Inhibition of STAT3 in IL-6-stimulated human HepG2 cells at 10 uM treated for 1 hr prior to IL-6 challenge measured after 5.5 hrs by luciferase reporter gene assay; type: cell-based
[3] = species: Homo sapiens; assay: Inhibition of TNF-alpha-stimulated NF-kappaB (unknown origin) activity at 10 uM
[4] = target: T2, Signal transducer and activator of transcription 1-alpha/beta (Homo sapiens) (UniProt P42224); assay: Inhibition of IFN-gamma-stimulated STAT1 (unknown origin) activity at 10 uM
T2 sequence (whole entry): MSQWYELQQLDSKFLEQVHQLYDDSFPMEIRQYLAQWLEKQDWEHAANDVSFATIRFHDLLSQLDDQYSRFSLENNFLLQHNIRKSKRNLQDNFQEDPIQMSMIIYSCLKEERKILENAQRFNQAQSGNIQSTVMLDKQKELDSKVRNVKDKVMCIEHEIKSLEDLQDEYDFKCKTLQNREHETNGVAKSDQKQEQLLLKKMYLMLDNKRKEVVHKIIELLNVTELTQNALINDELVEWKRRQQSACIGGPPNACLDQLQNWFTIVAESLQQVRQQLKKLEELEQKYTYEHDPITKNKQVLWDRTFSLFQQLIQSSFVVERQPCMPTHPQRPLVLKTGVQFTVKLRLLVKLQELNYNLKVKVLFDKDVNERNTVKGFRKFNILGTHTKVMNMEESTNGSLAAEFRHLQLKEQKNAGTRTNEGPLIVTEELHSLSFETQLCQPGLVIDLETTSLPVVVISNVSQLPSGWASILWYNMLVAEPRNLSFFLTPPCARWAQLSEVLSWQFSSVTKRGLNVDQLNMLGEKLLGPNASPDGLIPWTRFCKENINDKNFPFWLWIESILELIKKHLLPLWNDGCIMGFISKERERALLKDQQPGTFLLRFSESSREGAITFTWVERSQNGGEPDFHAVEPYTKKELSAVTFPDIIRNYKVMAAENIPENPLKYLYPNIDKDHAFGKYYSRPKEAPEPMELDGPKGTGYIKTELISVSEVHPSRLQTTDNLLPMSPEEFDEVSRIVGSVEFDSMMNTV

[5] = system: MDA-MB-468; assay: Cytotoxicity against human MDA-MB-468 cells harboring constitutively harboring activated STAT3 assessed as inhibition of cell viability after 72 hrs by MTT assay; type: functional, cell-based; conditions: MDA-MB-468, 72 h
[6] = system: HepG2; assay: Effect on JAK2 level in IL-6 stimulated human HepG2 cells at 50 uM treated for 6 hrs before IL-6 stimulation measured after 15 mins by Western blot analysis; type: functional, cell-based
[7] = system: HepG2; assay: Effect on STAT3 level in IL-6 stimulated human HepG2 cells at 50 uM treated for 6 hrs before IL-6 stimulation measured after 15 mins by Western blot analysis; type: functional, cell-based
[8] = target: Tyrosine-protein kinase JAK2 (Homo sapiens) (UniProt O60674); assay: Effect on JAK2 phosphorylation in IL-6 stimulated human HepG2 cells at 50 uM treated for 6 hrs before IL-6 stimulation measured after 15 mins by Western blot analysis; type: cell-based
[9] = target: T1, Signal transducer and activator of transcription 3; assay: Inhibition of STAT3 phosphorylation at Tyr705 in IL-6 stimulated human HepG2 cells at 50 uM treated for 6 hrs before IL-6 stimulation measured after 15 mins by Western blot analysis; type: cell-based
[10] = target: T1, Signal transducer and activator of transcription 3; assay: Inhibition of STAT3 phosphorylation at Tyr705 in IL-6 stimulated human HepG2 cells treated for 6 hrs before IL-6 stimulation measured after 15 mins by Western blot analysis; type: cell-based
[11] = target: T1, Signal transducer and activator of transcription 3; assay: Inhibition of STAT3 in IL-6-stimulated human HepG2 cells treated for 1 hr prior to IL-6 challenge measured after 5.5 hrs by luciferase reporter gene assay; type: cell-based

T1 sequence (P40763 whole entry): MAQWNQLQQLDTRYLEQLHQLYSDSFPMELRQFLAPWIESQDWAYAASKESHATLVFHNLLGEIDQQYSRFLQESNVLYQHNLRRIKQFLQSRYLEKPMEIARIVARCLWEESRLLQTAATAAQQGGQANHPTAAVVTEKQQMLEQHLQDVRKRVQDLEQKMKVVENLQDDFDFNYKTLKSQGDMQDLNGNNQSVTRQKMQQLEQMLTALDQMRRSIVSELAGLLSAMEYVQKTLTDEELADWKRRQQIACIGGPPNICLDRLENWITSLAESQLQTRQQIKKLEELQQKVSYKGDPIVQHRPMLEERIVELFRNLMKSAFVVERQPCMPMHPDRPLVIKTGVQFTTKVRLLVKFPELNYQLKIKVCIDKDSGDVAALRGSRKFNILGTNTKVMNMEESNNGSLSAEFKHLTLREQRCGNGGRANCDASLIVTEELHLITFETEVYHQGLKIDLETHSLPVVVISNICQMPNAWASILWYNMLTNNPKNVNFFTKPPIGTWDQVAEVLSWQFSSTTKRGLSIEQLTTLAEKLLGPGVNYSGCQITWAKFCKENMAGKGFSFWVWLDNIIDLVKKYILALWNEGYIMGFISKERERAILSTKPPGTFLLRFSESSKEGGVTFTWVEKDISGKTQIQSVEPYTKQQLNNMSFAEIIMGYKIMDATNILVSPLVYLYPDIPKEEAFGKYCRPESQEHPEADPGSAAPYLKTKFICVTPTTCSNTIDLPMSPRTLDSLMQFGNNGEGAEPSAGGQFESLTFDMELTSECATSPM
Chain of Tyrosine-protein kinase JAK2 (Homo sapiens) (O60674 whole entry): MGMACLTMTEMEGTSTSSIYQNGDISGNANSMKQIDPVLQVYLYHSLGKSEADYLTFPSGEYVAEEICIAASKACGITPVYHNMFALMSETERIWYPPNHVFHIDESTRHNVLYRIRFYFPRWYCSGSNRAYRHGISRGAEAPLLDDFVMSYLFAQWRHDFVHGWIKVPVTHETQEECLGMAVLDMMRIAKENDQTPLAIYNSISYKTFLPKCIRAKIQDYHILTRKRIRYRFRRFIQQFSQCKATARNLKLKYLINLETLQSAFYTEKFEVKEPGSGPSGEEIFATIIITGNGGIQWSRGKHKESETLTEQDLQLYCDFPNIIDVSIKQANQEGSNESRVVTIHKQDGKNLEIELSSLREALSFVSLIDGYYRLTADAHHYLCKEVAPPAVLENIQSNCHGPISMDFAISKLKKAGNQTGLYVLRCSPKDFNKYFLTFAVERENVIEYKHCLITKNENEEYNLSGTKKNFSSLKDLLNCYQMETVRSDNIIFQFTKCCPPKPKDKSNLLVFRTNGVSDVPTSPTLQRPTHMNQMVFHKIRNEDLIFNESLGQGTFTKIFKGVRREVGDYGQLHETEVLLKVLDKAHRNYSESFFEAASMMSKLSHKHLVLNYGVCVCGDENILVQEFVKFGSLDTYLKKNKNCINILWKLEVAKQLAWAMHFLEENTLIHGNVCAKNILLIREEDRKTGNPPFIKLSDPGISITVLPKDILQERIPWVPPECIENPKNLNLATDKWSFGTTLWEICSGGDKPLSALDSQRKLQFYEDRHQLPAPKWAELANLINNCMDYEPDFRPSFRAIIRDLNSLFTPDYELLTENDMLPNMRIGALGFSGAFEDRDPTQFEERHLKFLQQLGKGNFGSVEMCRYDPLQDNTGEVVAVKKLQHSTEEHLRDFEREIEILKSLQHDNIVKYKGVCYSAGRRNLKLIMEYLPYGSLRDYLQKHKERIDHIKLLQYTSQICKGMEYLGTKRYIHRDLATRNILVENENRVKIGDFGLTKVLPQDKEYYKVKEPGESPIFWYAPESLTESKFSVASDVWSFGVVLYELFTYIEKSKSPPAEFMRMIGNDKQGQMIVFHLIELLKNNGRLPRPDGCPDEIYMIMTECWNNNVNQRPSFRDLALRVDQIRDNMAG

## COc1ccc(C(=O)Nc2ccc3nc(SCC(=O)N[C@H](C)c4ccccc4)sc3c2)cc1
[1]
  inhibition at 10 µM: -56.8%
[2]
  inhibition: -0.31%

## COc1ccc(C(=O)Nc2ccc3nc(SCC(=O)Nc4c(C)cccc4C)sc3c2)cc1
[1]
  inhibition at 10 µM: 5.01%
[2]
  inhibition: -5.89%

## CCc1cccc(CC)c1NC(=O)CSc1nc2ccc(NC(=O)c3ccc(OC)cc3)cc2s1
[1]
  inhibition at 10 µM: -0.77%

## CCc1cccc(CC)c1NC(=O)CSc1nc2ccc(NC(=O)c3cccnc3)cc2s1
[1]
  inhibition at 10 µM: 8.23%
[2]
  inhibition: 14.4%

## CCc1cccc(CC)c1NC(=O)CSc1nc2ccc(NC(=O)Cc3ccccc3OC)cc2s1
[1]
  inhibition at 10 µM: -12.3%

## COc1ccc(C(=O)Nc2ccc(C(=O)OCC(=O)c3cccc([N+](=O)[O-])c3)cc2)cc1OC
[2]
  inhibition: 38.5%
[3]
  inhibition: -4.32%
[4]
  inhibition: 13.8%

## CCCCOc1ccc(C(=O)Nc2ccc3nc(SC(C)C(=O)Nc4c(C)cc(C)cc4C)sc3c2)cc1 (centres undefined)
[2]
  inhibition: 21.5%

## COc1ccc(C(=O)Nc2ccc3nc(SCC(=O)N[C@@H](C)c4ccccc4)sc3c2)cc1
[1]
  inhibition at 10 µM: -44.7%
[2]
  inhibition: 43%

## COc1ccccc1C(=O)Nc1ccc2nc(SCC(=O)Nc3c(C)cccc3C)sc2c1
[1]
  inhibition at 10 µM: 39%
[2]
  inhibition: 21.5%

## CCc1cccc(CC)c1NC(=O)CSc1nc2ccc(NC(=O)C(C)C)cc2s1
[1]
  inhibition at 10 µM: -17.4%
[2]
  inhibition: -8.31%

## CCCC(C)Oc1ccc(C(=O)Nc2ccc3nc(SCC(=O)Nc4c(CC)cccc4CC)sc3c2)cc1 (centres undefined)
[1]
  inhibition at 10 µM: 34.9%
[2]
  inhibition: 25.8%

## CCc1cccc(CC)c1NC(=O)CSc1nc2ccc(NC(=O)C3CC3)cc2s1
[1]
  inhibition at 10 µM: 32.4%
[2]
  inhibition: -9.23%

## CCc1cccc(CC)c1NC(=O)CSc1nc2ccc(NC(=O)c3ccccc3OC)cc2s1
[1]
  inhibition at 10 µM: 23.9%
[2]
  inhibition: 25.8%

## CCC(=O)Nc1ccc2nc(SCC(=O)Nc3c(CC)cccc3CC)sc2c1
[1]
  inhibition at 10 µM: -12%
[2]
  inhibition: 2.36%

## COc1ccc(NCc2nnc(SCC(=O)Nc3cccc4ccccc34)n2-c2ccc(OC)cc2)cc1
[2]
  inhibition: 24%

## CCc1cccc(CC)c1NC(=O)CSc1nc2ccc(NC(=O)c3ccc([N+](=O)[O-])cc3)cc2s1
[1]
  inhibition at 10 µM: 6.13%
[2]
  inhibition: -5.71%

## COc1ccc(C(=O)Nc2ccc3nc(SCC(=O)NCc4ccc(F)cc4)sc3c2)cc1
[1]
  inhibition at 10 µM: 5.48%

## CCCC(C)Oc1ccc(C(=O)Nc2ccc3nc(SCC(=O)N[C@@H](C)c4ccccc4)sc3c2)cc1 (some centres undefined)
[5]
  IC50: 16.1 µM
[1]
  inhibition at 10 µM: 51.4%
[6]
  Activity: inactive
[7]
  Activity: inactive
[8]
  Activity: inactive
[2]
  inhibition: 51.1%
[9]
  inhibition: Active

## CCCCOc1ccc(C(=O)Nc2ccc3nc(SCC(=O)N[C@@H](C)c4ccccc4)sc3c2)cc1
[1]
  inhibition at 10 µM: 57.2%
[2]
  inhibition: 30.9%

## CCc1cccc(CC)c1NC(=O)CSc1nc2ccc(NC(=O)c3ccc(OCc4ccccc4)cc3)cc2s1
[1]
  inhibition at 10 µM: 44.6%
[2]
  inhibition: 22.6%

## O=C(CSc1nc2ccc(NC(=O)c3ccccc3)cc2s1)Nc1ccc(F)c(Cl)c1
[1]
  inhibition at 10 µM: 9.04%

## CCc1cccc(CC)c1NC(=O)CSc1nc2ccc(NC(=O)c3ccncc3)cc2s1
[1]
  inhibition at 10 µM: 12.6%
[2]
  inhibition: 39.1%

## CCCCOc1ccc(C(=O)Nc2ccc3nc(SCC(=O)Nc4c(CC)cccc4CC)sc3c2)cc1
[2]
  inhibition: 49.5%

## CCc1cccc(CC)c1NC(=O)CSc1nc2ccc(NC(=O)C(C)Cl)cc2s1 (centres undefined)
[1]
  inhibition at 10 µM: -4.54%
[2]
  inhibition: -7.98%

## CCCCCOc1ccc(C(=O)Nc2ccc3nc(SCC(=O)Nc4c(CC)cccc4CC)sc3c2)cc1
[1]
  inhibition at 10 µM: 24.1%
[2]
  inhibition: 18.9%

## CCC(Sc1nc2ccc(NC(=O)c3ccc(OC)cc3)cc2s1)C(=O)Nc1ccc(Br)cc1 (centres undefined)
[5]
  IC50: 8.83 µM
[1]
  inhibition at 10 µM: 66.4%
[6]
  Activity: inactive
[7]
  Activity: inactive
[8]
  Activity: inactive
[2]
  inhibition: 34.8%
[9]
  inhibition: Active
[4]
  inhibition: 6.17%

## C[C@H](NC(=O)CSc1nc2ccc(NC(=O)c3ccc(OCc4ccccc4)cc3)cc2s1)c1ccccc1
[1]
  inhibition at 10 µM: 3.02%
[2]
  inhibition: 11.5%

## COc1cc(/C=C/C(=O)CC(=O)/C=C/c2ccc(O)c(OC)c2)ccc1O [CURCUMIN]
[5]
  IC50: 196 µM
[1]
  inhibition at 10 µM: 3.88%
[10]
  inhibition: Dose-dependent effect
[2]
  inhibition: 30.7%
[11]
  IC50: 19.2 µM

## COc1ccc(C(=O)Nc2ccc3nc(SCC(=O)NCc4ccc([N+](=O)[O-])cc4)sc3c2)cc1
[1]
  inhibition at 10 µM: -20.4%
[2]
  inhibition: 23.8%

## COc1ccc(C(=O)Nc2ccc3nc(SCC(=O)Nc4ccc(F)c(Cl)c4)sc3c2)cc1
[1]
  inhibition at 10 µM: 2.47%

## CCCCCOc1ccc(C(=O)Nc2ccc3nc(SCC(=O)N[C@@H](C)c4ccccc4)sc3c2)cc1
[1]
  inhibition at 10 µM: 61.1%
[2]
  inhibition: 30.7%

From ChEMBL document CHEMBL2331222, “Discovery of novel inhibitors of signal transducer and activator of transcription 3 (STAT3) signaling pathway by virtual screening” (Eur J Med Chem, 2013)
